What was measured:
Assay type in all cases: cell-based
[1] = test system: human fibroblasts; assay: Mitochondrial mass of FK866-treated human fibroblasts (Nonyl Acridine Orange probe, flow cytometry); conditions: for Effect of treatment against FK866 on mitochondrial mass (in words): fibroblasts treated with FK866; for Mitochondrial mass Increase (%): vs FK866 2.5 nM non treated
Procedure: Human fibroblasts were cultured at 37° C. in wet atmosphere with 5% CO2, on MEM supplemented with glucose, serum and glutamine. The cells are treated with a chemical agent (FK866) in the presence or absence of the following compounds: Trans-resveratrol and Betaine. Agent FK866 reduces the cell mitochondrial mass, thereby mimicking one of the signs of ageing.
Under these conditions, the ability of the active ingredient to increase the mitochondrial mass is assessed.
After 24 h treatment, the mitochondrial mass is therefore measured using the Nonyl Acridine Orange (NAO, Invitrogen) probe which fluoresces at 533 nm. The cell viability can be measured by DAPI staining. A flow cytometry analysis is conducted with a FACS LSRII and the results analysed by FlowJo software.

[2] = test system: human fibroblasts; assay: Intracellular ATP production by cultivated human fibroblasts (chemiluminescence-based assay); conditions: resveratrol 1 μM, betaine 1 mM or mixture; for ATP (μM per cell) Mean value: 120 min incubation, mean of 4 measurements; for ATP Increase (%): with respect to ATP level in untreated cells, 120 min
Procedure: Human fibroblasts were cultured at 37° C. in wet atmosphere with 5% CO2, on MEM supplemented with glucose, serum and glutamine. A solution containing trans-resveratrol and/or betaine is added to the culture medium:
The primary fibroblast cultures are incubated for 120 min with resveratrol at a final concentration of 1 μM, betaine at a concentration of 1 mM or a mixture of the two.
The cell viability is measured after incubation by fluorescence. The intracellular ATP concentration is measured by a chemiluminescence-based assay; the mean of 4 measurements is taken.
The intracellular ATP concentrations are expressed in μM of ATP per viable cell and percent of ATP increase is calculated with respect to the ATP level in untreated cells.

[3] = test system: Col1A1; assay: Col1A1 gene expression in cutaneous fibroblasts (quantitative real-time PCR); conditions: 24 h, resveratrol 4 μM, betaine 5 mM or both; for Relative expression of Col1A1 Mean value: relative to untreated (ΔΔCt); for Relative expression of Col1A1 Increase (%): vs untreated
Procedure: Cutaneous fibroblasts were cultured for 24 h with resveratrol, betaine or mixtures of the two compounds.
For the gene expression analysis, the total RNAs were extracted from the fibroblast cultures and the expression measured by quantitative real-time PCR. RNA extraction was carried out using an RNeasy Mini Kit (Qiagen). The total RNAs were used for the cDNA synthesis using the iScript cDNA synthesis Kit (Biorad). The PCR reactions were conducted using the mix LightCycler® 480 SYBR Green I Master (Roche). To compare the relative expressions, the Δ ΔCt method was used. The relative expression of the gene of interest is represented by the expression variation compared with the untreated samples.

[4] = in presence of FK866 2.5 nM, 24 h, betaine 5 mM, resveratrol 25 μM or both
[5] = 24 h, betaine 5 mM, resveratrol 25 μM or both

Row | SMILES | Mitochondrial mass Decrease (%) ([1]; FK866 2.5 nM alone vs basal, 24 h) | Mitochondrial mass (fluorescence units) Mean ([1]; FK866 2.5 nM alone, 24 h treatment) [fluorescence units] | Effect of FK866 on mitochondrial mass of fibroblasts (in words) ([1]; FK866 alone) | ATP (μM per cell) Mean value [2] [μM per cell] | ATP Increase (%) [2] [%] | Effect of treatment against FK866 on mitochondrial mass (in words) [1] | Mitochondrial mass (fluorescence units) Mean [1, 4] [fluorescence units] | Mitochondrial mass Increase (%) [1, 5] [%] | Relative expression of Col1A1 Mean value [3] | Relative expression of Col1A1 Increase (%) [3] [%]
1 | O=C(/C=C/c1cccnc1)NCCCCC1CCN(C(=O)c2ccccc2)CC1 [FK866, reference compound] | 10 | 1326 | decreases the mitochondrial mass |  |  |  |  |  |  | 
2 | C[N+](C)(C)CC(=O)[O-] [Betaine, trimethylglycine] |  |  |  | 0.080 | 20 | protects against the effects of FK866 | 1574 | 19 | 1.28 | 28
3 | Oc1ccc(C=Cc2cc(O)cc(O)c2)cc1 [Resveratrol, 3,5,4′-trihydroxystilbene] |  |  |  | 0.086 | 28 | protects against the effects of FK866 | 2285 | 72 | 1.22 | 22

— US20200046617A1, “Composition For Combating The Signs Of Ageing Of The Skin And Hair And Nails” (TOMCAT INTERNATIONAL LIMITED, priority 2017, published 2020)
